Measurements: PMC13334477 (RSC Medicinal Chemistry, 2026)

How the values were obtained:
[1] = system: Htel-FT (human telomeric DNA G4); assay: FRET melting assay, Htel-FT; format: binding; conditions: ligand 1 μM, DNA 0.2 μM
Method: Doubly labelled oligonucleotides with fluorescein and TAMRA were purchased lyophilized and RP-cartridge purified from Eurogentec (Kanaka Eurogentec, Seraing, Belgium). FRET melting experiments were run on Stratagene Mx3005P real-time PCR equipment in 96-well plates on the DNA sequences listed Table 1. Experiments were performed in 10 mM lithium cacodylate buffer (pH 7.2) and 10 mM KCl and 90 mM LiCl as previously described.[45,46] The DNA concentration was 0.2 μM. The stabilization (ΔT1/2) induced by compounds was calculated as the difference between the Tm of the nucleic acid alone and that measured with a ligand concentration of 1 μM. Data are presented as averages of three independent measurements, each conducted in duplicate (λexc = 492 nm, λem = 516 nm, T interval = 25–95 °C, ramp: 25 °C for 5 min, then 1 °C min^−1, measurements every 1 °C, 8× magnification of the fluorescence signal). The G4 selectivity of the ligands with respect to the duplex was evaluated by determining the Tm values in the presence of 0, 3 or 10 μM of the duplex competitor ds26.
In this assay, we performed thermal denaturation experiments by heating and recording the fluorescence of DNA oligonucleotides doubly labelled with fluorescein and TAMRA fluorophores (Fig. 3 and S7). Ligand binding to the G4 stabilises the structure, resulting in an increase in the half-dissociation temperature of the structure (ΔT1/2). As a first approximation, the higher the ΔT1/2 (ΔT1/2 higher), the higher the affinity of the ligand for the target.[45]
The fluorescently labeled oligonucleotides were dissolved at a concentration of 0.2 μM in 10 mM lithium cacodylate buffer (pH 7.2) with 10 mM KCl and 90 mM LiCl. […] E) Radar plot representation that summarizes the FRET-melting results (ΔT1/2 (°C)) for each ligand in the presence of HIVpro1-FT (green), HIVpro2-FT (grey), LTR4-FT (bleu), and Htel-FT (red). Data are the results of at least three independent experiments in which each data point was performed in duplicate.

[2] = system: rLTR4-5′Cy5 (parallel RNA G4); assay: Ligand-induced fluorescence quenching assay (FQA), rLTR4-5′Cy5; format: binding, HIV-1
Method: Cy5 labelled oligonucleotides were purchased lyophilized and RP-cartridge purified from Eurogentec (Kanaka Eurogentec, Seraing, Belgium). The ligand-induced fluorescence quenching assay was conducted as previously described.[47] A Stratagene Mx3005P instrument was used to carry out the assay in 96-well plates. The filters for excitation and emission were set at 635 nm and 665 nm, respectively. The gain was used at 8×. The labeled oligonucleotide was used at 10 nM, and the buffer was 10 mM lithium cacodylate (pH 7.2), 10 mM KCl, and 90 mM LiCl in a final volume of 50 μL. The oligonucleotide was heated at 90 °C for 5 min and put in ice to anneal. The ligand was added over a range of concentrations between 0 and 80 μM. A competitor, ds26, was also added at 3 or 10 μM. Each experimental condition was tested in triplicate except for the ligand alone with the buffer, which was tested in duplicate. The instrument was programmed to heat the plate for 10 min at 25 °C and measure the fluorescence after 1 min for 5 cycles. The fluorescence of each sample was normalized, and the fluorescence of the ligand alone was subtracted.
We then addressed the binding of the DBA series to the rLTR4 RNA G4. The FRET melting assay was not appropriate for investigating ligand binding to this RNAs due to its high thermal stability (Tm > 72 °C).[26] We have therefore used a ligand-induced fluorescence quenching assay (FQA) to analyse the interaction of the DBAs with either 5′ or 3′ fluorescently labelled RNAs (Fig. S8). Since planar G4-ligands generally stack on an accessible G-quartet,[94–96] we expect the DBAs to also recognize G4s by stacking interactions. To conduct a fluorescence quenching experiment, a CY5 fluorophore is attached on the 3′ or 5′ end of the RNA. […] Thus, upon interaction of the ligand with the G-quartet, the ligand induces the quenching of the fluorescence emission. This test enables determination of the apparent association constants (Ka) of each DBA with the 5′ or 3′ quartet of the G4 structure (Fig. 4, Table S3). […] A similar difference in G-tetrad binding affinities has previously been observed for TMPyP4 and PhenDC3.[47]
The fluorescently labeled oligonucleotides were dissolved at a concentration of 10 nM in 10 mM lithium cacodylate buffer (pH 7.2) with 10 mM KCl and 90 mM LiCl. […] Data are the results of at least three independent experiments in which each data point was performed in duplicate.

HIV-1 = assay: microbe, parasite or virus in culture; conditions: Human immunodeficiency virus 1, HeLaP4, read-out: IC50 (infectivity inhibition), native HIV-1, MOI 1, compound added 30 min before infection, 24 h, β-gal reporter

Row | Compound | ΔT1/2 Htel ([1]; +10µM ds26) | Ka rLTR4-5′Cy5 FQA ([2]; +10µM ds26) | Kd ([2]; +10µM ds26) | Ka rLTR4-5′Cy5 FQA ([2]; No ds26) | Kd ([2]; No ds26) | IC50 (HIV-1) | ΔT1/2 Htel ([1]; No ds26)
1 | COc1ccc2c(ccc3c2cc2c4ccc(OC)cc4ccc2[n+]3-c2ccc([N+](=O)[O-])cc2)c1 [DBA4] | 14±0.3 °C | 1.2±0.05 10^5 M | 8.4 ± 2.1 µM | 2.3±0.1 10^5 M | 4.4 ± 1 µM | 1 µM | –
2 | c1ccc(-[n+]2c3ccc4ccccc4c3cc3c4ccccc4ccc32)cc1 [DBA5] | 9.0±0.1 °C | 1.1±0.04 10^5 M | 9.5 ± 2.6 µM | 1.6±0.07 10^5 M | 6.2 ± 1.4 µM | – | 12.2±0.1 °C
3 | COC(=O)c1ccc(-[n+]2c3ccc4cc(OC)ccc4c3cc3c4ccc(OC)cc4ccc32)cc1 [DBA2] | 12±0.6 °C | 0.9±0.03 10^5 M | 11.6 ± 3.8 µM | 1.1±0.03 10^5 M | 9.3 ± 2.9 µM | 3.1 µM | –
4 | COc1ccc(-[n+]2c3ccc4cc(OC)ccc4c3cc3c4ccc(OC)cc4ccc32)cc1 [DBA3] | 14±0.1 °C | 0.9±0.07 10^5 M | 11.1 ± 1.4 µM | 1.2±0.06 10^5 M | 8.7 ± 1.6 µM | 4.3 µM | –
5 | COc1ccc2c(ccc3c2cc2c4ccc(OC)cc4ccc2[n+]3-c2ccccc2)c1 [DBA1] | 13±0.5 °C | 1.1±0.06 10^5 M | 8.9 ± 1.8 µM | 1.8±0.07 10^5 M | 5.5 ± 1.5 µM | 0.9 µM | 17±0.2 °C
